pIC50: −log10 of the molar value. Like-named read-outs stand apart in the source and are kept apart here.
Assays:
[1] = test system: EBC-1 cells; assay: Cell proliferation assay (CCK-8); format: cell-based; settings: Homo sapiens, 72 h
Protocol: (§1) Considering increased c-Met activity has been implicated in multiple tumour cells, we evaluated the half maximal inhibitory concentration (IC50) of LAH-1 in several cancer cell lines which harbour different levels of Met genetic alteration, these include human lung squamous cell carcinoma EBC-1, human gastric cancer line Hs746T, human oesophageal adenocarcinoma cell line OE33, human small-cell lung cancer SBC-5, and human glioblastoma cell U87MG.
(§2) EBC-1, Hs746T, OE33, SBC-5, U87MG, HT-1080 cell lines were purchased from ATCC, RIKEN, ECACC or JCRB. The antiproliferative activities of LAH-1 against these cells were assessed by CCK-8 assay according to the manufacturer’s protocol. Briefly, cells were seeded in 96-well plate at different density. 3-fold serial diluted compound or DMSO control was added to each well. After 72 h incubation, CCK-8 was added and incubated for another 2 h. The optical density of each well was read by microplate reader (Biotech, Shanghai, China). IC50 values were calculated by GraphPad Prism.

[2] = test system: OE33 cells; assay: Cell proliferation assay (CCK-8); format: cell-based; settings: Homo sapiens, 72 h
Protocol: as §1, §2

[3] = test system: SBC-5 cells; assay: Cell proliferation assay (CCK-8); format: cell-based; settings: Homo sapiens, 72 h
Protocol: as §1, §2

[4] = test system: U87MG cells; assay: Cell proliferation assay (CCK-8); format: cell-based; settings: Homo sapiens, U-87 MG, 72 h
Protocol: as §1, §2

[5] = test system: Hs746T cells; assay: Cell proliferation assay (CCK-8); format: cell-based; settings: Homo sapiens, 72 h
Protocol: as §1, §2

[6] = test system: HT-1080 cells; assay: Cell proliferation assay (CCK-8); format: cell-based, human
Protocol: as §1, §2

[7] = molecular target: KDR (Homo sapiens, UniProt P35968); assay: Kinase profile, KDR; settings: 300 nM
Chain of KDR (P35968 20-1356, species assumed): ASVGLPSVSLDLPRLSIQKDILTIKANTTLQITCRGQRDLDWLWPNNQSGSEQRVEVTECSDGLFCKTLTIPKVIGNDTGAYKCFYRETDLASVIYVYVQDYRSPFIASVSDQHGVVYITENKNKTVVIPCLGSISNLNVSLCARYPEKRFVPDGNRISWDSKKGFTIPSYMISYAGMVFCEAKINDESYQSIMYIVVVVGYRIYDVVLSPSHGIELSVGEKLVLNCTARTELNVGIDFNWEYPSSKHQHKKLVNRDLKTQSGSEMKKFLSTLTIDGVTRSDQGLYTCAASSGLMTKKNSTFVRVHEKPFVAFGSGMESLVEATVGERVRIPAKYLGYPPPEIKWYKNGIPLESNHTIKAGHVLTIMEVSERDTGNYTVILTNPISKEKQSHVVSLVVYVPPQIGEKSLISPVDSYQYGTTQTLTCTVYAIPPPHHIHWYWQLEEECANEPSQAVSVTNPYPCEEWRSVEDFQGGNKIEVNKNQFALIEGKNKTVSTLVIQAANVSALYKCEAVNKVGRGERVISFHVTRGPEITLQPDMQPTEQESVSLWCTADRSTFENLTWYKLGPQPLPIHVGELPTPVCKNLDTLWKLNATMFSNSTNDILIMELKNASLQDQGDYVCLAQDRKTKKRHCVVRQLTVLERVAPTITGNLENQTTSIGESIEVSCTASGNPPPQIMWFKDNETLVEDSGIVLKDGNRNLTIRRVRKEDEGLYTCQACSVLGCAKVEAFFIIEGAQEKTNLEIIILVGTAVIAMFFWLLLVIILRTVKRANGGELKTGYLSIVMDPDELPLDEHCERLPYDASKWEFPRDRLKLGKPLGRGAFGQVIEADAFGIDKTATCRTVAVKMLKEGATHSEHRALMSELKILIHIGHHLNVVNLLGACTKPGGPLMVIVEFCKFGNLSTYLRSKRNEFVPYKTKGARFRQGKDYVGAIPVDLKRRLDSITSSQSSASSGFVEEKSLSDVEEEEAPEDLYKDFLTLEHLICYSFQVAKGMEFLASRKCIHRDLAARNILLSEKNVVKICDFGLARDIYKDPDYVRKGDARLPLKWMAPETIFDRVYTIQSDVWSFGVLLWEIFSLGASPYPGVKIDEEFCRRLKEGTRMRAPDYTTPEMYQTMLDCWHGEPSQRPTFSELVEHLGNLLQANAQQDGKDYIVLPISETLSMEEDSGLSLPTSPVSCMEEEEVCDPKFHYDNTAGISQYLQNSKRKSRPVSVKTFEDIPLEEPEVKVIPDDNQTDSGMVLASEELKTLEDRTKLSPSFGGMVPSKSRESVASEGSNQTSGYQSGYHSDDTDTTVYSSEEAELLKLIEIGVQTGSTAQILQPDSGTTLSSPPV

[8] = test system: EBC-1 cells; assay: Annexin V-FITC/PI dual staining apoptosis assay; format: cell-based, human; settings: EBC-1, 24 h; untreated group 1.42%
Protocol: To determine whether the observed cell death was due to physiological apoptosis, Annexin V FITC/PI dual staining assay was conducted. EBC-1cells were treated with LAH-1 at different concentrations for 24 h to examine the effect on apoptosis.
The effect of LAH-1 on EBC-1 cells apoptosis was determined by Annexin V-FITC/PI apoptosis detection kit (BD Bioscience, Cat. No. 556547). Briefly, 300,000 EBC-1 cells were seeded in 6-well plate. After treatment with or without LAH-1 for 24 h, cells were collected, stained by FITC in binding buffer preventing from light, and then labelled by PI (absin, Cat. No. abs50005-50T). The apoptotic cells were analysed by flow cytometer Cytoflex S (Beckman Coulter).

[9] = test system: phosphorylation of c-Met, Akt, and Erk 1/2 in EBC-1 cells; assay: Western blot of c-Met signalling; format: cell-based, human; settings: 2 h treatment
Protocol: Based on the sensitivity of LAH-1 against six cancer cell lines, we then conducted western blot assays to confirm the effect of LAH-1 on c-Met inhibition in cancer cells, and human non-small lung cancer (NSCLC) cell EBC-1 which harbours amplified Met gene was used.
Briefly, EBC-1 cells were seeded at a density of 1.5 × 10^6 cells/well and treated with Compound LAH-1 at the indicated concentration for 2 h. DMSO-treated cells were used as control groups. The whole cellular protein was extracted and measured by BCA protein assay. Total proteins were fractionated on SDS-PAGE and then transferred onto PVDF membranes (Millipore). Membranes were blocked with 5% BSA at room temperature and then incubated overnight at 4 °C with specific primary antibodies (Phospho-Met (CST, #3077S), Met (D1C2) (CST, #8198S), Phospho-Akt (CST, #4060S), Akt (pan) (C67E7) (CST, #4691S), Phospho-p44/42 MAPK (Erk1/2) (CST, #4370S), p44/42 MAPK (Erk1/2) (137F5) (CST, #4695S)) followed by the secondary antibody. Finally, the detection was performed by the Fully Automated Chemiluminescence/Fluorescence Image Analysis Systems (Tanon 5200).

[10] = Egg-PAMPA permeability assay; format: in vitro ADME; settings: incubation 4 h
Protocol: (§3) Having characterised LAH-1 as a potent c-Met inhibitor, the ADME properties and PK parameters were further determined. […] Additionally, Egg-PAMPA (Parallel artificial membrane permeability assay) confirmed LAH-1 as membrane permeable, with permeability rates (Pe) of 3.4 nm/s. […] Next, LAH-1 was further progressed into in vivo PK studies.
(§4) The liver microsomal stability assay, PAMPA, and CYP 450 Inhibition Assay were conducted according to the previous reported procedure.

[11] = Liver microsomal stability assay; format: in vitro ADME, human; settings: HLM
Protocol: as §3, §4

[12] = Liver microsomal stability assay; format: in vitro ADME, SD rat; settings: RLM
Protocol: as §3, §4

[13] = test system: WI-38 cells; assay: Antiproliferative inhibition, normal fibroblasts; format: cell-based; settings: Homo sapiens
[14] = In vivo pharmacokinetics; set-up: species or system SD rats
Protocol: as §3
PK parameters of LAH-1 was determined in SD rats (male, n = 3 per group) weighing (200–240 g), which were obtained from SpePharm (Beijing) Biotechnology Co., Ltd. Briefly, rats were fasted overnight before dosing, LAH-1 was given as a solution in 10% DMSO with 90% Saline for intravenously (5 mg/kg) and 0.1% PEG400 in 0.5% CMC-Na in water for PO (20 mg/kg). Each rat received 2 or 10 ml of the dosing solution/kg of body weight by intravenous injection and by gavage, respectively. Blood sample was collected at 0.033 (iv only), 0.083, 0.25, 0.5,1, 2, 4, 6, 8, 12 and 24 h after dosing and stored in ice (0–4 °C). Plasma was separated by centrifugation within 15 min post sampling. Levels of LAH-1 in blood were determined by 6500+ Triple Quad LC-MS/MS System (AB SCIEX LLC, CA, USA). The PK parameters were calculated with WinNonlin software using noncompartmental analysis.

[15] = test system: NCI-H441 cells; assay: HGF-induced cell invasion (transwell); format: cell-based; settings: HGF 100 ng/mL, 28 h
Protocol: (§5) To investigate the effect of LAH-1 on colony formation ability, the EBC-1 cells which harbouring Met amplification were treated with different concentrations of LAH-1. […] Considering the important role of HGF/c-Met signalling in promoting cancer cell migration and invasion, the NCI-H441 cells with elevated expression level of c-Met was used. After treatment with HGF in the presence of LAH-1, the migratory and invasive abilities of NCI-H441 cells were determined.
(§6) NCI-H441 cells in log growth phase were suspended in serum-free medium at a density of 150,000 cells per well and then seeded in 24-well transwell plates ([8] μm; Corning). Designated control or LAH-1 treated cells were added to each migration or invasion chamber and incubated for 28 h. Additionally, HGF (100 ng/mL) was added to the lower well of each companion plate to attract cells from migration or invasion chamber plate inserts at the top of the companion plate. The invaded or migrated cells to the lower wells were then fixed and stained with crystal violet. Images were taken by Olympus BX51 microscope.

[16] = molecular target: c-Met (Homo sapiens, UniProt P08581); assay: In vitro enzymatic assay (mobility shift assay, ATP at Km)
Chain of c-Met (P08581 956-1390 limits assumed): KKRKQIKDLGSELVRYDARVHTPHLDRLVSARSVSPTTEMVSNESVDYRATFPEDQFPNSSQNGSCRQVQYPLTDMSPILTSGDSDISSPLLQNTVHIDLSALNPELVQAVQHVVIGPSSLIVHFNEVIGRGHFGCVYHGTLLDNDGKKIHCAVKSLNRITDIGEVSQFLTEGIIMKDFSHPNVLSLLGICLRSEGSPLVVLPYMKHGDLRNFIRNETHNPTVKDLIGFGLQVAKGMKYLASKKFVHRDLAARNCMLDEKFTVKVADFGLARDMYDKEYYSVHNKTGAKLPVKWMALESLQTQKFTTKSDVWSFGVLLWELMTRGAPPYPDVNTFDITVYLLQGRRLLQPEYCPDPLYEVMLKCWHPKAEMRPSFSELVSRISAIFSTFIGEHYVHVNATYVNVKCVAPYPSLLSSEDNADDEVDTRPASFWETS
Protocol: The compound and enzyme solution were added to the assay plate and incubate at room temperature for 10 min. Then the peptide solution was added, incubate at 28 °C for specified period of time, and subsequently added the stop buffer. Data was collected on Calliper, and IC50 values were calculated from the inhibition curves.

[17] = test system: EBC-1 cells; assay: Colony formation; format: cell-based, human; settings: EBC-1, 14 days treatment, especially at 20 μM
Protocol: as §5
EBC-1 cells were trypsinized and approximately 2000 cells were plated on 6-well plates. 14 days later, visible colonies were fixed and stained with 0.1% crystal violet. The number of colonies was quantified by Image J software (Developed by National Institutes of Health). A group of >50 cells was defined as one colony. All experiments were performed in duplicate wells.

[18] = molecular target: CYP2C19 (Homo sapiens, UniProt P33261); assay: CYP450 inhibition assay; format: in vitro ADME
Chain of CYP2C19 (P33261 whole entry): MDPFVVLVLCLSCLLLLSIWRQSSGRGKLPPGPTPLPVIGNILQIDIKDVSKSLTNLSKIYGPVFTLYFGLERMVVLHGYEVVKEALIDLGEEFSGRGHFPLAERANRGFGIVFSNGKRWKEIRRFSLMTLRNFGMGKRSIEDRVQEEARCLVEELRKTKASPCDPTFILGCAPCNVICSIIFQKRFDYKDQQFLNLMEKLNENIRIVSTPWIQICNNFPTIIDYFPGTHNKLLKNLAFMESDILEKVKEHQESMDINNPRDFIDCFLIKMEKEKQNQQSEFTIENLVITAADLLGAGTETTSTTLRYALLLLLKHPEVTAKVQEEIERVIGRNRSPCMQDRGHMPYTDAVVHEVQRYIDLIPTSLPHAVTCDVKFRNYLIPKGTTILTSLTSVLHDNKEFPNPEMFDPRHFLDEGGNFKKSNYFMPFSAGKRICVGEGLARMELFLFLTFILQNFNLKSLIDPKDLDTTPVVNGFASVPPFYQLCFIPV
Protocol: as §3, §4

[19] = molecular target: CYP3A4 (Homo sapiens, UniProt P08684); assay: CYP450 inhibition assay; format: in vitro ADME
Chain of CYP3A4 (P08684 whole entry): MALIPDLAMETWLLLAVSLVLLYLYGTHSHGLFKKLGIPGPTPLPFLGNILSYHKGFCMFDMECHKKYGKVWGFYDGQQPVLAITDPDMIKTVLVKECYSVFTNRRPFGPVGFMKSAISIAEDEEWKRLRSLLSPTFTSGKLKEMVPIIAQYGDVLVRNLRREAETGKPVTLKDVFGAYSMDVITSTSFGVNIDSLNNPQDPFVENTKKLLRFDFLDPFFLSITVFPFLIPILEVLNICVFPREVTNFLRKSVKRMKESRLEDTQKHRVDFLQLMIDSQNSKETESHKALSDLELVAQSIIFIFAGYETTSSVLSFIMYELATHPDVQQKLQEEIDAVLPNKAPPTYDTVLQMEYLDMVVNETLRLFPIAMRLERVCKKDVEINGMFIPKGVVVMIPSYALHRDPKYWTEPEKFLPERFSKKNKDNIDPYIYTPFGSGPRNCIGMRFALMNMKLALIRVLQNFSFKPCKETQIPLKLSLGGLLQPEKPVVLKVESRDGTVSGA
Protocol: as §3, §4

[20] = molecular target: T1, CYP1A2 (Homo sapiens, UniProt P05177); assay: CYP450 inhibition assay; format: in vitro ADME
T1 sequence (P05177 1-516): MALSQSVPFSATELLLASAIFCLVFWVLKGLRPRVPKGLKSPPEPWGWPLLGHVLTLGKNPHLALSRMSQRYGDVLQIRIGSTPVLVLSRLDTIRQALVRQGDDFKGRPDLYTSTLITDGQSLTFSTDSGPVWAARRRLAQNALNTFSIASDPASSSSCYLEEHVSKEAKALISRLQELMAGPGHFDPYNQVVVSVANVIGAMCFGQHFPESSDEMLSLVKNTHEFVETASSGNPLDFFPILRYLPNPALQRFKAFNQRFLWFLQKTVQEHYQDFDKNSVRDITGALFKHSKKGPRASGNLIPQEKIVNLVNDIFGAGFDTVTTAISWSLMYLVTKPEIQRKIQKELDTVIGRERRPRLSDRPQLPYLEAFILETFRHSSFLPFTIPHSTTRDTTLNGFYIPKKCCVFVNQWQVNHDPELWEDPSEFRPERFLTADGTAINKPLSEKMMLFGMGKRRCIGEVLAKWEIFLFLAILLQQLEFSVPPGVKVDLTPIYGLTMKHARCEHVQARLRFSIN
Protocol: as §3, §4

[21] = molecular target: CYP2D6 (Homo sapiens, UniProt P10635); assay: CYP450 inhibition assay; format: in vitro ADME
Chain of CYP2D6 (P10635 whole entry): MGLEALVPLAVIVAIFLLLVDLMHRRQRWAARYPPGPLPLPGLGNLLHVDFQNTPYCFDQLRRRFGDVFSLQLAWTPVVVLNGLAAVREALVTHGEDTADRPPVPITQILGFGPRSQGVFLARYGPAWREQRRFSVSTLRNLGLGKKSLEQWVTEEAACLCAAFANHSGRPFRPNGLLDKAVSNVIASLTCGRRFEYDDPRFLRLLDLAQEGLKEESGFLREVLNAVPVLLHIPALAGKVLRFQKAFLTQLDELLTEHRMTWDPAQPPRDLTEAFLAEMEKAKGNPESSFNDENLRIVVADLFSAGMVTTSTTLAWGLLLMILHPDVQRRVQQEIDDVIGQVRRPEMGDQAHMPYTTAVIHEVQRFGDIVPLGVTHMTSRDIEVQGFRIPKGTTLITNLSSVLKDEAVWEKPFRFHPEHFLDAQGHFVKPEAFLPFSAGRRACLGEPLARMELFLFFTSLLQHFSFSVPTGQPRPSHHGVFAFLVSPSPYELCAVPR
Protocol: as §3, §4

[22] = molecular target: CYP2C9 (Homo sapiens, UniProt P11712); assay: CYP450 inhibition assay; format: in vitro ADME
Chain of CYP2C9 (P11712 whole entry): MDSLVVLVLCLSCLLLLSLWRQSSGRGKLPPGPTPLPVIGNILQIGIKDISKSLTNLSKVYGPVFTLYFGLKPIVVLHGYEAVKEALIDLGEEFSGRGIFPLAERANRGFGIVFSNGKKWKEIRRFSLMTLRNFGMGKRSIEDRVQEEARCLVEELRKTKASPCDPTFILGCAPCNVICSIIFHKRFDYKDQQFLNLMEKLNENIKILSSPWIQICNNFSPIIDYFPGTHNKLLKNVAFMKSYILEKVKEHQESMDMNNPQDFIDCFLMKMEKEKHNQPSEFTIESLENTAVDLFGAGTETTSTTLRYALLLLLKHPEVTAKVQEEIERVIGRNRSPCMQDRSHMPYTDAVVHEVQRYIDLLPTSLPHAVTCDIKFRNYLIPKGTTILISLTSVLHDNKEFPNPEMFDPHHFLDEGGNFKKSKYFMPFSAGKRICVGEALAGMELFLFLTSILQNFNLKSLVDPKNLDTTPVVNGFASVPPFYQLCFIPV
Protocol: as §3, §4

[23] = test system: panel of 18 diversified kinases; assay: Kinase profile against a panel of 18 kinases; settings: 300 nM; including highly homologous kinases RON and Axl
[24] = test system: NCI-H441 cells; assay: HGF-induced cell migration (transwell); format: cell-based; settings: HGF 100 ng/mL, 28 h
Protocol: as §5, §6

[25] = Sprague-Dawley, rat, plasma, iv, 5 mg/kg, male SD rats
[26] = Sprague-Dawley, rat, plasma, po, 20 mg/kg, male SD rats

Cc1cc(=O)n(-c2ccc(F)cc2)nc1C(=O)Nc1ccc(Oc2ccnc(NC(=O)N3CC(O)C3)c2)c(F)c1 [LAH-1, N-(3-fluoro-4-((2-(3-hydroxyazetidine-1-carboxamido)pyridin-4-yl)oxy)phenyl)-1-(4-fluorophenyl)-4-methyl-6-oxo-1,6-dihydropyridazine-3-carboxamide] showed a pIC50 [1] of 5.94, a pIC50 [2] of 5.37 and a pIC50 [3] of 4.79. For the same molecule, the pIC50 [4] was 4.81, the pIC50 [5] was 5.63 and the pIC50 ([6]; Homo sapiens, HT-1080, 72 h, CCK-8, c-Met non-addicted cell line) was less than 4.00. For the same molecule, the “effect on HT-1080 (in words)” value ([6]; cell line with low expression or activation of c-Met) was “minimal effect”, the “inhibition on KDR” value [7] was “showed inhibition” and the early apoptosis [8] was 16.8%. The “phosphorylation level of c-Met, Akt, and Erk 1/2” value [9] was “dose-dependent decrease”, the Permeability ([10]; 10 μM) was “Moderate” and the Papp at 4 h, 10 μM ([10]; read-out: Mean Pe) was 0.34 ×10⁻⁶ cm/s. For the same molecule, the “Remaining (T = 60min)” value [11] was 88.7%, the half-life ([11]; human, liver microsomes) was greater than 2.08 h and the microsomal CLint ([11]; human, liver microsomes, read-out: CL int) was less than 8.6 µL/min/mg. The “Remaining (T = 60min)” value [12] was 81.2%, the half-life ([12]; Sprague-Dawley, rat, liver microsomes) was greater than 2.08 h and the microsomal CLint ([12]; Sprague-Dawley, rat, liver microsomes, read-out: CL int) was less than 8.6 µL/min/mg. It also gave an inhibition at 100 µM [13] of 34.5%, an AUC(0-inf) [14, 25] of 16800 ng·h/mL and a Cmax [14, 25] of 14900 ng/mL. For the same molecule, the clearance [14, 25] was 19.2 mL/min/kg, the half-life [14, 25] was 1.6 h and the bioavailability ([14]; Sprague-Dawley, rat, plasma, po 20 mg/kg vs iv 5 mg/kg, male SD rats, read-out: F% (oral bioavailability)) was 12.2%. For the same molecule, the AUC(0-inf) [14, 26] was 8210 ng·h/mL, the Cmax [14, 26] was 4460 ng/mL and the Tmax [14, 26] was 0.33 h. For the same molecule, the half-life [14, 26] was 2.2 h, the “plasma clearance (in words)” value ([14]; iv, 5 mg/kg, SD rats) was “moderate plasma clearance” and the “invasion of HGF-induced NCI-H441 cells” value [15] was “dose dependent suppressed”. For the same molecule, the pIC50 [16] was 7.31, the colony formation [17] was “significantly inhibited” and the inhibition at 10 µM [18] was 15.6%. The inhibition at 10 µM [19] was 32.2%, the inhibition at 10 µM [20] was 12.8% and the inhibition at 10 µM [21] was 21.5%. The inhibition at 10 µM [22] was 50.7%, the “selectivity over the other 16 kinases” value [23] was “great selectivity” and the “migration of HGF-induced NCI-H441 cells” value [24] was “dose dependent suppressed”.

Reference: paper PMC11721924, “Discovery of LAH-1 as potent c-Met inhibitor for the treatment of non-small cell lung cancer” (Journal of Enzyme Inhibition and Medicinal Chemistry, 2023)
